Measurements reported in EP4306108A1, “5-AMINOLEVULINIC ACID, OR AN ESTER THEREOF FOR USE IN TREATMENT OF CANCER BASED ON THE INHIBITION OF LACTATE DEHYDROGENASE” (Theodossiou, Theodossis, priority 2022, dated 2024).

Tests used:
[1] = tested on: LDH present in cell lysates, Ln18; assay: Spectrophotometric LDH kinetics (NADH absorbance at 340 nm), cell lysates; format: biochemical, human; conditions: 0.75 mM 5-ALA, no inhibitor: -1.48
Protocol: (§1) The cells used in the present examples were human glioblastoma multiforme (GBM) cell lines, purchased from the American Type Culture Collection (ATCC, Manassas, VA, USA). These cell lines were LN18 (ATCC®, CRL-2610™), U87 (ATCC®, HTB-14™), T98G (ATCC®, CRL-1690™) and M059K (ATCC®, CRL-2365™). All cells were grown in RPMI 1640 without phenol red, supplemented with 10% fetal bovine serum (FBS) and penicillin/streptomycin at 37 °C in a 5% CO2 and 95% humidified atmosphere.
(§2) A. enzyme solutions. 0.5 mL of an aqueous LDH solution was mixed with 0.5 mL reaction buffer to start the LDH reduction of pyruvate. The final LDH concentration was always 5 µM.

[2] = tested on: LDH present in cell lysates, U87; assay: as above; format: biochemical, human; conditions: 0.75 mM 5-ALA, no inhibitor: -1.43
Protocol: as §1, §2

[3] = tested on: LDH present in cell lysates, T98G; assay: as above; format: biochemical, human; conditions: 0.75 mM 5-ALA, no inhibitor: -1.20
Protocol: as §1
as §2, with “µM. […] The final concentration of 5-ALA in the total volume of the reaction mix (1 mL) was 5 mM for 5-ALA. In the enzymatic assays LDH refers to the LDH-A isoform.” for “µM.”
(§3) In the second phase of the experiments, the enzymatic activity of LDH present in cell lysates was investigated.
(§4) Cell lysates were obtained from LN18, T98G, U87 and M059K GBM cells. In brief, cells from confluent T175 flasks were harvested with the use of TrypLE™ Express Enzyme (Gibco, REF# 12604021) and resuspended in ddH2O with Triton™ X-100 (0,25%). The cell lysate measurements were performed according to the enzymatic solution measurents, however in this case, cell lysates equivalent to […] were each time added to the H2O half of the reaction mix. […]

[4] = tested on: LDH present in cell lysates, M059K; assay: as above; format: biochemical, human; conditions: 0.75 mM 5-ALA, no inhibitor: -1.47
Protocol: as §1
as §2, with “µM. […] The final concentration of 5-ALA in the total volume of the reaction mix (1 mL) was 5 mM for 5-ALA. In the enzymatic assays LDH refers to the LDH-A isoform.” for “µM.”
as §3, §4

[5] = tested on: T98G; assay: Seahorse XFe96 metabolic assay (OCR/ECAR), in-situ injection of 5-ALA; format: cell-based, human; conditions: T98G cells; 5-ALA 500 - 1000 µM injected in situ; Figure 1
Protocol: as §1
(§5) In order to study the changes in cell metabolism in GBM cells following the in-situ addition of 5-ALA, the Seahorse XFe96 analyzer (Agilent Technologies) was employed. Briefly, 4×10^4 cells were seeded in a seahorse plate and incubated overnight in complete RPMI 1640 medium at 37 °C, and a 5% CO2 humidified atmosphere. One hour prior to the experiments, the cells had their media changed to unbuffered XF RPMI pH 7.4 medium supplemented with 10 mM glucose, 2 mM L-glutamine, and 2 mM sodium pyruvate and were incubated for one hour at 37 °C, 0% CO2 atmosphere. The basal oxygen consumption and media acidification rates (OCR and ECAR respectively) of the cell groups were measured in four cycles. After those four cycles injections of i) 5-ALA (500 - 1000 µM), ii) Oligomycin A (OLIGO) 1 µM, iii) Carbonyl cyanide 4-(trifluoromethoxy)phenylhydrazone (FCCP) 1 µM and iv) Antimycin A (ANTI A) and Rotenone (ROT) 2 µM each were sequentially performed for 3 measurement cycles each.

[6] = tested on: MO59K; assay: as above; format: cell-based, human; conditions: MO59K cells; 5-ALA 500 - 1000 µM injected in situ; Figure 1
Protocol: as §1, §5

[7] = tested on: U87; assay: as above; format: cell-based, human; conditions: U87 cells; 5-ALA 500 - 1000 µM injected in situ; Figure 1
Protocol: as §1, §5

[8] = tested on: LN18; assay: as above; format: cell-based, human; conditions: LN18 cells; 5-ALA 500 - 1000 µM injected in situ; Figure 1
Protocol: as §1, §5

[9] = tested on: T98G; assay: Seahorse XF Real-Time ATP Rate Assay; format: cell-based, human; conditions: T98G cells; 1000µM of 5-ALA; change versus control
Protocol: as §1, §5
(§6) The ATP contributions of mitochondrial respiration and cell glycolysis in U87, T98G, M059K and LN18 human GBM cells in the presence or absence of 5-ALA, were deconvoluted quantified by use of the Seahorse XF Real-Time ATP Rate Assay Kit. In brief the same protocol as in Example 1 was followed without the injection of FCCP and with only three basal measurement cycles, while the corresponding final concentrations of OLIGO and ROT/ANTI A were this time 1.5 and 0.5 µM. The ATP rates were determined with use of the Agilent Seahorse XF Real-Time ATP Rate Assay Report Generator.
(§7) The wells in the bottom row of the seahorse plates were in all cases left devoid of cells and were used as blank values. These were automatically subtracted by the Seahorse analyser software.
(§8) The changes in ATP production from either respiration or glycolysis were evaluated upon addition of 1000µM of 5-ALA.

[10] = tested on: M059K; assay: Seahorse XF Real-Time ATP Rate Assay; format: cell-based, human; conditions: M059K cells; 1000µM of 5-ALA; change versus control
Protocol: as §1, §5, §6, §7, §8

[11] = tested on: U87; assay: Seahorse XF Real-Time ATP Rate Assay; format: cell-based, human; conditions: U87 cells, 1000µM of 5-ALA, change versus control
Protocol: as §1, §5, §6, §7, §8

[12] = tested on: LN18; assay: Seahorse XF Real-Time ATP Rate Assay; format: cell-based, human; conditions: LN18 cells; 1000µM of 5-ALA; change versus control
Protocol: as §1, §5, §6, §7, §8

[13] = molecular target: LDH-A isoform (Homo sapiens, UniProt P00338); assay: Spectrophotometric LDH kinetics (NADH absorbance at 340 nm), enzyme solution
[14] = tested on: T98G; assay: MTT cell viability assay; format: cell-based, human; conditions: T98G cells; 10mM 5-ALA; after 72h incubation
Protocol: as §1
(§9) The cells were incubated with 5, 10 and 20 mM 5-ALA for three days and each day the effect of 5-ALA on their viability was assessed by standard MTT assays at 24, 48 and 72h following incubation. The results are shown in Figure 5 (Error bars represent one SD).

[15] = tested on: U87; assay: MTT cell viability assay; format: cell-based, human; conditions: U87 cells
Protocol: as §1, §9

[16] = tested on: LN18; assay: MTT cell viability assay; format: cell-based, human; conditions: LN18 cells
Protocol: as §1, §9

[17] = 10mM 5-ALA, all time points (24, 48 and 72h)
[18] = 20 mM 5-ALA, compared with the 90-98% reduction at 10mM

NCC(=O)CCC(=O)O [5-ALA, 5-Aminolevulinic acid]
initial slope of NADH absorbance curve (LDH Vmax for the cell lysate volume studied) [1]: -0.47
initial slope of NADH absorbance curve (LDH Vmax for the cell lysate volume studied) [2]: -0.32
initial slope of NADH absorbance curve (LDH Vmax for the cell lysate volume studied) [3]: -0.57
initial slope of NADH absorbance curve (LDH Vmax for the cell lysate volume studied) [4]: -0.53
glycolytic activity [5]: drop in the glycolytic activity of those cell lines which was dose dependent
glycolytic activity [6]: drop in the glycolytic activity of those cell lines which was dose dependent
glycolytic activity [7]: drop in the glycolytic activity of those cell lines which was dose dependent
glycolytic activity [8]: drop in the glycolytic activity of those cell lines which was dose dependent
reduction in glycolytic ATP production [9]: ~-200 pmol/min
reduction in glycolytic ATP production [10]: ~ -250 pmole/min
reduction in glycolytic ATP production [11]: ~-200 pmol/min
increase in mitochondrial respiration-derived ATP ([11]; marginally significant): ~ 100 pmole/min
reduction in glycolytic ATP production [12]: ~-140 pmol/min
initial slope of NADH absorbance curve (corresponds to Vmax of the enzyme) ([13]; Enzyme solution, 5 mM 5-ALA, first 5 data points (8 sec), pH 6.5, no inhibitor: -2.28): -0.51
activity at 5000 µM ([13]; read-out: enzyme function as % of its Vmax): ~22%
lethality level reached (cell viability) [14]: LD40
reduction in cell viability [15, 17]: 90-98%
reduction in cell viability [15, 18]: in general, maintained
reduction in cell viability [16, 17]: 90-98%
reduction in cell viability [16, 18]: in general, maintained
